Data on 3 compounds can be found in patent US20240407990A1, “SYNERGISTIC ANTIOXIDANT COMPOSITIONS” (The Procter & Gamble Company, priority 2023, published 2024).

One experiment relates to keratinocytes. Description: Peroxide-Induced Keratinocyte Stress (ATP levels post-peroxide exposure). The format is cell-based. Also noted: key: net luminescence counts (treatment minus vehicle control). From the text:
This methodology is further discussed in Assessing bioenergetic function in response to oxidative stress by metabolic profiling. Free Radical Biology and Medicine; […], Benavides […], Zelickson […]. Zou L, Chatham J C, Hill B G, Zhang […]; 2011 Nov. 1; 51(9):1621-35, incorporated herein by reference, as well as in Proceedings of the National Academy of Sciences of the United States of America; Miyoshi N, Oubrahim H, Chock […] . . . 2006 Feb. 7; 103(6):1727-31, incorporated herein by reference. […] Hydrogen peroxide is a well-known ROS as is commonly used as a surrogate to analyze the effects of a variety of ROS. In this test, keratinocytes are cultured (passage <8) in T150 flasks using Epi-Life medium (Calcium Free and Phenol Red Free, supplemented with penicillin/streptomycin and keratinocytes growth supplement, Invitrogen cat #[…]500) in a CO2 incubator (Forma 51030532, Marietta OH). The keratinocytes are then plated into 96 well plates, 10,000 cells/well, 0.2 ml media. […] Luminescence is measured on a SpectraMax M3 (Molecular Devices, Sunnyvale, CA). Net luminescence is calculated by subtracting the luminescence counts from the vehicle control from the luminescence counts from the treatment groups. […] In each case, the arithmetic sum of the measured anti-oxidant activity of the three individual components is compared to the measured anti-oxidant activity of the triad combination of the same levels. Experiments are done in triplicate enabling the statistical determination (by T-test) of significance of whether synergism (observed/calculated ratio is greater than 1) is observed.

In a further experiment the test system is skin fibroblasts. As to conditions: skin fibroblasts in vitro; cited from earlier work.
In the next experiment the test system is skin. The note with it: cited from earlier work.

Regarding `Cc1cc(CC(C)CC(C)(C)C)n(O)c(=O)c1.NCCO` (stereo not drawn) [Piroctone Olamine, piroctone olamine], the “Mean Keratinocyte ATP Level” value with keratinocytes (Piroctone Olamine 0.5% alone, post-peroxide exposure) amounted to 13548.3; in the experiment with keratinocytes (Piroctone Olamine 0.8% alone, post-peroxide exposure) it was 18548.3.

As for `CC(C)(CO)[C@@H](O)C(=O)NCCCO` [Panthenol, panthenol], the “formation of reactive oxygen species (ROS)” value with skin fibroblasts was “inhibit”. For the same compound, the “Mean Keratinocyte ATP Level” value in the experiment with keratinocytes (Panthenol 0.005% alone, post-peroxide, series with PO 0.5%) is 193.3; with keratinocytes (Panthenol 0.005% alone, post-peroxide, series with PO 0.8%), 170.0; in the experiment with keratinocytes (Panthenol 0.01% alone, post-peroxide, series with PO 0.5%), 473.3; in the experiment with keratinocytes (Panthenol 0.01% alone, post-peroxide, series with PO 0.8%) it was 280.0; in the experiment with keratinocytes (Panthenol 0.05% alone, post-peroxide, series with PO 0.5%) it was 617.3; with keratinocytes (Panthenol 0.05% alone, post-peroxide, series with PO 0.8%), 550.7. Besides, the “Mean Keratinocyte ATP Level” value with keratinocytes (Panthenol 0.1% alone, post-peroxide, series with PO 0.5%) is listed as 1234.3; in the experiment with keratinocytes (Panthenol 0.1% alone, post-peroxide, series with PO 0.8%), 1227.7; with keratinocytes (Panthenol 0.2% alone, post-peroxide, series with PO 0.5%), 5282.0; in the experiment on keratinocytes (Panthenol 0.2% alone, post-peroxide, series with PO 0.8%), 5711.7.

For the compound `NC(=O)c1cccnc1` [Niacinamide, niacinamide], the “Mean Keratinocyte ATP Level” value is listed as 100.3 in the experiment with keratinocytes (Niacinamide 0.005% alone, post-peroxide, series with PO 0.5%); 32.7 with keratinocytes (Niacinamide 0.005% alone, post-peroxide, series with PO 0.8%); 154.3 in the experiment on keratinocytes (Niacinamide 0.01% alone, post-peroxide, series with PO 0.5%); 85.7 in the experiment with keratinocytes (Niacinamide 0.01% alone, post-peroxide, series with PO 0.8%); 341.0 in the experiment with keratinocytes (Niacinamide 0.05% alone, post-peroxide, series with PO 0.5%); 465.0 in the experiment on keratinocytes (Niacinamide 0.05% alone, post-peroxide, series with PO 0.8%). Also, the “Mean Keratinocyte ATP Level” value amounted to 1142.0 in the experiment with keratinocytes (Niacinamide 0.1% alone, post-peroxide, series with PO 0.5%); 875.0 in the experiment on keratinocytes (Niacinamide 0.1% alone, post-peroxide, series with PO 0.8%); 9208.3 with keratinocytes (Niacinamide 1.0% alone, post-peroxide, series with PO 0.5%); 6003.7 in the experiment on keratinocytes (Niacinamide 1.0% alone, post-peroxide, series with PO 0.8%); 12314.3 with keratinocytes (Niacinamide 1.8% alone, post-peroxide, series with PO 0.5%); 11751.3 with keratinocytes (Niacinamide 1.8% alone, post-peroxide, series with PO 0.8%). Besides, in the experiment on skin, the “lipoperoxide generation in skin” value was “inhibit”. The “oxidative damage caused by pollutant particulate matter” value with skin is on record as “inhibit”.
